Reference: paper PMC12169669, “Regio- and Stereoselective Synthesis of Nitro-fatty Acids as NRF2 Pathway Activators Working under Ambient or Hypoxic Conditions” (Journal of Medicinal Chemistry, 2025)

Legend:
Assay type in all cases: cell-based, mouse
Gclm = assay: GCLM protein level in BMCs (Western blot); settings: 2 μM, 7 h
Description: (§1) Primary bone marrow cells (BMCs) were isolated from 8–12-week-old male C57BL/6 mice (25–30 g, AnLab, Czech Republic). Mice were housed under standard conditions. BMCs were isolated as follows: The day before isolation, phosphate-buffered saline (PBS), ACK Lysis Buffer (A10492-01, Thermo Fisher Scientific), and Iscove’s Modified Dulbecco’s Medium (IMDM) (12440-053, Thermo Fisher Scientific) were placed in a hypoxic chamber (InvivO2 400, Baker Ruskinn, UK) with adjustable oxygen control to equilibrate for the target oxygen concentrations. On the day of the experiment, animals were euthanized using ketamine/xylazine, and bilateral femurs were extracted. BMCs were flushed with hypoxic (1% O2 unless stated otherwise) PBS supplemented with 2% fetal bovine serum (FBS; low endotoxin, FB-1101/500, Biosera, France). After hemolysis at room temperature using hypoxic ACK Lysis Buffer, nucleated BMCs were washed with hypoxic PBS + 2% FBS and counted using a TC20 automated cell counter (Bio-Rad). Cells were kept under hypoxic conditions prior to treatment. The medium for BMC culture, consisting of IMDM with 2% FBS and 1% penicillin/streptomycin (LM-A4118/100, Biosera, France), was supplemented with 10 ng/mL mouse IL-3, 10 ng/mL mouse IL-6, and 50 ng/mL mouse stem cell factor - SCF (213-13, 216-16, and 250-03, respectively; all from PeproTech). Cells were cultured at 37 °C in a humidified atmosphere containing 5% CO2 and the specified oxygen concentrations (21%, 4%, or 1%).
(§2) Briefly, 1.5 × 10^6 BMCs were placed in 0.2 mL of complete medium in 1.5 mL microtubes and incubated with 2 μM NO2FAs or the control (medium only) for 1 (NRF2), 4 (heme oxygenase-1, HO-1), or 7 (glutamate-cysteine ligase modifier subunit, GCLM) hours at the specified oxygen levels (21%, 4%, or 1%). Cells were then spun down and washed with PBS (from this step onward, cells were processed under atmospheric conditions). Next, cells were lysed in 60 μL RIPA buffer (89901, Thermo Fisher Scientific) containing protease and phosphatase inhibitors cocktail (78442, Thermo Fisher Scientific). Cell lysates were sonicated and centrifuged at 15,000g for 3 min at 4 °C, and 15 μL of lane marker (3900, Thermo Fisher Scientific) was added to the supernatants. Samples were boiled for 3 min at 95 °C. Equal volumes of lysates (15–45 μL/well) were loaded onto 7–15% SDS-polyacrylamide gels. Proteins were then transferred onto PVDF membranes (IPVH85R, EMD Millipore Corp.) and blocked with 5% nonfat dry milk in TBST. Membranes were incubated overnight at 4 °C with the following primary antibodies: anti-β-actin (1:1000; #3700, Cell Signaling Technology), antivinculin (1:10,000; #SAV9264, Sigma-Aldrich), anti-NRF2 (1:500; A308758, Lot 38410, Antibodies.com, UK), anti-HO-1 (1:1000; #43966, Cell Signaling Technology), antihistone H3 (1:2000; #4499, Cell Signaling Technology), or anti-GCLM (1:100; sc-55586, Santa Cruz Biotechnology). This was followed by incubation with corresponding HRP-linked secondary antibodies (antimouse IgG, #7076, 1:1000–5000; or antirabbit IgG, #7074, 1:1000–2000; both from Cell Signaling Technology) for 1 h at room temperature. Protein bands were visualized using an enhanced chemiluminescent substrate (SuperSignal 34577/34095, Thermo Fisher Scientific). The optical densities of detected proteins were measured using ImageJ v1.52 (NIH).
(§3) 4 Expression of NRF2-target proteins HO-1 and GCLM. NO 2 FA derivatives upregulate the expression of NRF2-target proteins in mouse BMCs. BMCs were cultured under 21% or 1% oxygen conditions and treated with 2 μM of the tested NO 2 FAs for 4 h (A, B) or 7 h (C, D). HO-1 (A, B) and GCLM (C, D) expression in whole-cell lysates was subsequently analyzed. Results are presented as the fold change relative to control cells across different oxygen culture conditions. Data are expressed as mean ± SD from 3–5 independent experiments (n = 3–5). […]

HO-1 = HO-1 protein level in BMCs (Western blot); settings: 2 μM, 4 h; for HO-1 increase at 1% oxygen relative to atmospheric conditions: 1% vs 21% oxygen
Description: as §1, §2, §3

NRF2 = NRF2 stabilization in bone marrow cells (Western blot, whole-cell lysates); settings: BMCs, 2 μM, 1 h
Description: as §1, §2
2 Stabilization of NRF2 by tested NO2FA derivatives. NO 2 FA derivatives stabilize NRF2 in mouse bone marrow cells (BMCs). Nucleated BMCs were cultured under varying oxygen conditions (21%, 4%, and 1%) and treated for 1 h with 2 μM of the tested NO 2 FAs, followed by analysis of NRF2 expression in whole-cell lysates. Results are shown as the fold change relative to control cells across different oxygen culture conditions (A–C). Data are expressed as mean ± SD from 3–4 independent experiments (n = 3–4). Statistical analysis was performed using one-way ANOVA with Dunnett’s multiple comparisons test (* p < 0.05).

| SMILES | GCLM protein level, fold change relative to control (Gclm; 1% oxygen) | GCLM protein level, fold change relative to control (Gclm; 21% oxygen) | HO-1 increase at 1% oxygen relative to atmospheric conditions (HO-1) | HO-1 protein level, fold change relative to control (HO-1; 21% oxygen) | NRF2 expression (stabilization), fold change relative to control (NRF2; 1% oxygen) | NRF2 expression (stabilization), fold change relative to control (NRF2; 4% oxygen) | HO-1 protein level, fold change relative to control (HO-1; 1% oxygen) | NRF2 expression (stabilization), fold change relative to control (NRF2; 21% oxygen) |
| --- | --- | --- | --- | --- | --- | --- | --- | --- |
| CCCCCCCC/C=C(\CCCCCCCC(=O)O)[N+](=O)[O-] [9-NO2OA, (9E)-9-Nitro-oleic Acid] | nearly the same increase | nearly the same increase | roughly 1.8 fold | significantly increased | significantly increased | – | – | – |
| CCCCCC/C=C/C=C(\CCCCCCCC(=O)O)[N+](=O)[O-] [9-NO2cLA, (9E,11E)-9-Nitro Conjugated Linoleic Acid] | – | – | – | – | nonsignificant increase | nonsignificant increase | – | – |
| CCCCC/C=C\C/C(=C\CCCCCCCC(=O)O)[N+](=O)[O-] [10-NO2LA, (9E,12Z)-10-Nitro Linoleic Acid] | – | only significant at 21% oxygen | – | – | – | significantly increased | only increased HO-1 under hypoxic conditions | – |
| CCCCCCCC/C(=C\CCCCCCCC(=O)O)[N+](=O)[O-] [10-NO2OA, (9E)-10-Nitro-oleic Acid] | nearly the same increase | nearly the same increase | ~2.2 fold | significantly increased | significantly increased | – | – | – |
| CCCCCCCCC(CCCCCCCCC(=O)O)[N+](=O)[O-] (stereo not shown) [10-NO2SA, 10-Nitro Stearic acid] | no significant effects | no significant effects | – | no significant effects | no effect | no effect | no significant effects | no effect |
